Test results published in patent US20250188103A1, “HETEROCYCLIC GLP-1 AGONISTS” (Gasherbrum Bio, Inc., priority 2022, published 2025).

biological target: T1, GLP-1 Receptor (Homo sapiens, UniProt P43220); test: GLP-1R agonist cAMP stimulation assay; format: cell-based; conditions: cells stably expressing the GLP-1 Receptor (method not given)
T1 construct: HD Biosciences / HDB (Method 3); host or cells: CHO-K1 (Methods 1, 2) or HEK293/CRE-Luc (Method 3)
Method: Activation of GLP-1 receptor is known to stimulate cyclic AMP (cAMP) production in cells which indicates primary coupling to the Gas subunit of the G protein heterotrimeric complex.
Method 1: To optimize functional activity directed toward Gas coupling, a CHO-K1 cell line developed by DiscoverX stably expressing the GLP-1 Receptor is used. Cells expressing GLP-1 receptor are plated in a 384-well microtiter plates and incubated overnight at 37° C. with 5% CO2 to allow the cells to attach and grow. Media is then aspirated from the cells and replaced with 15 μL Hanks Balanced Salt Solution (HBSS)/5 mM Hepes:0.5 mM IBMX 0.1% BSA (pH 7.4) [Stimulation Buffer]. […] previously generated compound sample stocks at 4× final concentration in Stimulation Buffer are then added to the cells and allowed to incubate at 37° C. for 30 or 60 minutes.
After incubation the assay signal is generated using a europium chelate-labeled cAMP tracer which competes with cAMP for binding sites on a cAMP-specific monoclonal antibody labeled with ULight™ dye. When antibodies are bound to the Eu-labeled cAMP tracer FRET transfer between the Eu chelate and ULight™ labeled antibodies is detected. Free cAMP produced from stimulated cells competes with the Eu-cAMP tracer for binding to the ULight™-mAb causing a decrease in the TR-FRET signal in a dose dependent manner.
The method for detection of cAMP using the Eu-chelate technology requires incubation with Eu-cAMP tracer solution+ULight™-anti-cAMP solution for one hour at room temperature. Microplates are read following signal generation with a PerkinElmer Envision instrument utilizing TR-FRET signal detection. Percentage activity is calculated using the following formula: […]
Method 2: To optimize functional activity directed toward Gas coupling, a CHO-K1 cell line developed by DiscoverX stably expressing the GLP-1 Receptor is used. Cells expressing GLP-1 receptor are plated in a 384-well microtiter plates and incubated overnight at 37° C. with 5% CO2 to allow the cells to attach and grow. Media is then aspirated from the cells and replaced with 15 μL 2:1 Hanks Balanced Salt Solution (HBSS)/10 mM Hepes: cAMP XS+Ab reagent. Five microliters (5 μL) of previously generated compound sample stocks at 4× final concentration in assay buffer are then added to the cells and allowed to incubate at 37° C. for 30 or 60 minutes.
After incubation the assay signal is generated using enzyme fragment complementation (EFC). In EFC, the enzyme B-galactosidase is split into two complementary portions (EA and ED). The fragment ED is fused to cAMP and in the assay format competes with endogenous cAMP for binding to a cAMP specific antibody. Activated B-Gal is formed when exogenous EA fragment binds to free ED-cAMP (not bound to cAMP specific antibody). Activated enzyme levels are detected through conversion of B-gal chemiluminescent substrate which generates a detectable luminescence signal and read on standard microtiter plate.
The methodology for detection of cAMP using EFC requires incubation with 20 μL of cAMP XS+ED/CL lysis cocktail for one hour followed by incubation with 20 μL cAMP XS+EA reagent for three hours at room temperature. Microplates are read following signal generation with a PerkinElmer Envision instrument utilizing chemiluminescent signal detection. Compound activity is analyzed using CBIS data analysis suite (ChemInnovation, CA). Percentage activity is calculated using the following formula: […]
Method 3: Activation of GLP-1 receptor is known to stimulate cyclic AMP (cAMP) production in cells which indicates primary coupling to the Gas subunit of the G protein heterotrimeric complex.
To optimize functional activity directed toward Gas coupling, a HEK293/CRE-Luc cell line developed by HDB stably expressing the GLP-1 Receptor was used. […]

T1 sequence (P43220 24-463): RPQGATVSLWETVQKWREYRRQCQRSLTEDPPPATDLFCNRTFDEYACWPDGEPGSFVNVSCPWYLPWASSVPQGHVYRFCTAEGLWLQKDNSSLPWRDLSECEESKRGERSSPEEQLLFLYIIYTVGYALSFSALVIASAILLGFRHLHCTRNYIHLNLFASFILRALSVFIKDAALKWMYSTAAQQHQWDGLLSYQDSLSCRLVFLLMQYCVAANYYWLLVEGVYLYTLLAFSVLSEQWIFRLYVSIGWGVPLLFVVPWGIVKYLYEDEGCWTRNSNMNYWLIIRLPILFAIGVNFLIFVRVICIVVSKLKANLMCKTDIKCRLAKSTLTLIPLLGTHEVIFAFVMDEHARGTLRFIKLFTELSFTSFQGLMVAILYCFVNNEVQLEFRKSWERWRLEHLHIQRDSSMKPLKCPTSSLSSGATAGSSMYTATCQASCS

Compound | EC50 [nM]
CCP(=O)(CC)c1ccc(-n2ccn(-c3c4c(nn3-c3cc(C)c(F)c(C)c3)CCN(C(=O)c3cc5cc(C6CCOCC6)ccn5c3C3(c5noc(=O)[nH]5)CC3)[C@H]4C)c2=O)cc1NC [Compound 21, 3-(1-{2-[(4S)-3-{3-[4-(diethylphosphoryl)-3-(methylamino)phenyl]-2-oxo-2,3-dihydro-1H-imidazol-1-yl}-2-(4-fluoro-3,5-dimethylphenyl)-4-methyl-2H,4H,5H,6H,7H-pyrazolo[4,3-c]pyridine-5-carbonyl]-7-(oxan-4-yl)indolizin-3-yl}cyclopropyl)-4,5-dihydro-1,2,4-oxadiazol-5-one] | 0.02
CCP(=O)(CC)c1ccc(-n2ccn(-c3c(-c4cc(C)c(F)c(C)c4)nn4c3C(C)N(C(=O)c3sc5cc(C6CCOCC6)ccc5c3C3(c5noc(=O)[nH]5)CC3)CC4)c2=O)cc1NC (stereo not shown) [Compound 30] | 0.32
CNc1cc(-n2ccn(-c3c4c(nn3-c3cc(C)c(F)c(C)c3)CCN(C(=O)c3cc5cc(C6CCOCC6)ccn5c3C3(c5noc(=O)[nH]5)CC3)[C@H]4C)c2=O)ccc1P(C)(C)=O [Compound 3] | 0.07
CCP(=O)(CC)c1ccc(-n2ccn(-c3c4c(nn3-c3cc(C)c(F)c(C)c3)CCN(C(=O)c3cc5cc(C6CCOCC6)cnn5c3C3(c5noc(=O)[nH]5)CC3)[C@H]4C)c2=O)cc1NC [Compound 26, 3-(1-{6-[(4S)-3-{3-[4-(diethylphosphoryl)-3-(methylamino)phenyl]-2-oxo-2,3-dihydro-1H-imidazol-1-yl}-2-(4-fluoro-3,5-dimethylphenyl)-4-methyl-2H,4H,5H,6H,7H-pyrazolo[4,3-c]pyridine-5-carbonyl]-3-(oxan-4-yl)pyrrolo[1,2-b]pyridazin-7-yl}cyclopropyl)-4,5-dihydro-1,2,4-oxadiazol-5-one] | 0.014
CCP(=O)(CC)c1ccc(-n2ccn(-c3c4c(nn3-c3cc(C)c(F)c(C)c3)CCN(C(=O)c3[nH]c5cc(C6CCOCC6)ccc5c3C3(c5noc(=O)[nH]5)CC3)[C@H]4C)c2=O)cc1NC [Compound 28, 3-(1-{2-[(4S)-3-{3-[4-(diethylphosphoryl)-3-(methylamino)phenyl]-2-oxo-2,3-dihydro-1H-imidazol-1-yl}-2-(4-fluoro-3,5-dimethylphenyl)-4-methyl-2H,4H,5H,6H,7H-pyrazolo[4,3-c]pyridine-5-carbonyl]-6-(oxan-4-yl)-1H-indol-3-yl}cyclopropyl)-2,5-dihydro-1,2,4-oxadiazol-5-one] | 0.033
CCP(=O)(CC)c1ccc(-n2ccn(-c3c4c(nn3-c3cc(C)c(F)c(C)c3)CCN(C(=O)c3cn5cc(C6CCOCC6)ccc5c3C3(c5noc(=O)[nH]5)CC3)[C@H]4C)c2=O)cc1NC [Compound 20, 3-(1-{2-[(4S)-3-{3-[4-(diethylphosphoryl)-3-(methylamino)phenyl]-2-oxo-2,3-dihydro-1H-imidazol-1-yl}-2-(4-fluoro-3,5-dimethylphenyl)-4-methyl-2H,4H,5H,6H,7H-pyrazolo[4,3-c]pyridine-5-carbonyl]-6-(oxan-4-yl)indolizin-1-yl}cyclopropyl)-4,5-dihydro-1,2,4-oxadiazol-5-one] | 0.03
[2H]C([2H])([2H])Nc1cc(-n2ccn(-c3c4c(nn3-c3ccc(F)c(C5CC5)c3)CCN(C(=O)c3cc5cc(C6CCOCC6)ccn5c3C3(c5noc(=O)[nH]5)CC3)[C@H]4C)c2=O)ccc1P(C)(C)=O [Compound 6] | 0.089
CCP(=O)(CC)c1ccc(-n2ccn(-c3c4c(nn3-c3cc(C)c(F)c(C)c3)CCN(C(=O)c3oc5cc(C6CCOCC6)ccc5c3C3(c5noc(=O)[nH]5)CC3)[C@H]4C)c2=O)cc1NC [Compound 19, 3-(1-{2-[(4S)-3-{3-[4-(diethylphosphoryl)-3-(methylamino)phenyl]-2-oxo-2,3-dihydro-1H-imidazol-1-yl}-2-(4-fluoro-3,5-dimethylphenyl)-4-methyl-2H,4H,5H,6H,7H-pyrazolo[4,3-c]pyridine-5-carbonyl]-6-(oxan-4-yl)-1-benzofuran-3-yl}cyclopropyl)-4,5-dihydro-1,2,4-oxadiazol-5-one] | 0.049
CCP(=O)(CC)c1ccc(-n2ccn(-c3c(-c4cc(C)c(F)c(C)c4)nn4c3C(C)N(C(=O)c3nc5cc(C6CCOCC6)ccn5c3C3(c5noc(=O)[nH]5)CC3)CC4)c2=O)cc1NC (stereo not shown) [Compound 29] | 29
CCP(=O)(CC)c1ccc(-n2ccn(-c3c4c(nn3-c3cc(C)c(F)c(C)c3)CCN(C(=O)c3nn5cc(C6CCOCC6)cnc5c3C3(c5noc(=O)[nH]5)CC3)[C@H]4C)c2=O)cc1NC [Compound 24] | 0.18
CCP(=O)(CC)c1ccc(-n2ccn(-c3c4c(nn3-c3cc(C)c(F)c(C)c3)CCN(C(=O)c3sc5cc(C6CCOCC6)ccc5c3C3(c5noc(=O)[nH]5)CC3)[C@H]4C)c2=O)cc1NC [Compound 18, 3-(1-{2-[(4S)-3-{3-[4-(diethylphosphoryl)-3-(methylamino)phenyl]-2-oxo-2,3-dihydro-1H-imidazol-1-yl}-2-(4-fluoro-3,5-dimethylphenyl)-4-methyl-2H,4H,5H,6H,7H-pyrazolo[4,3-c]pyridine-5-carbonyl]-6-(oxan-4-yl)-1-benzothiophen-3-yl}cyclopropyl)-4,5-dihydro-1,2,4-oxadiazol-5-one] | 0.061
CNc1cc(-n2ccn(-c3c4c(nn3-c3ccc(F)c(C5CC5)c3)CCN(C(=O)c3cc5cc(C6CCOCC6)ccn5c3C3(c5noc(=O)[nH]5)CC3)[C@H]4C)c2=O)ccc1P(C)(C)=O [Compound 4] | 0.085
CCP(=O)(CC)c1ccc(-n2ccn(-c3c4c(nn3-c3ccc(F)c(C5CC5)c3)CCN(C(=O)c3cc5cc(C6CCOCC6)ccn5c3C3(c5noc(=O)[nH]5)CC3)[C@H]4C)c2=O)cc1NC [Compound 5] | 0.11
